Reference: US20260028326A1, “COMPOUND BASED ON ISOINDOLINE-SUBSTITUTED GLUTARIMIDE BACKBONE AND USE THEREOF” (GLUETACS THERAPEUTICS (SHANGHAI) CO., LTD., priority 2022, published 2026)

Molecular target: human Cereblon WT GST-tagged protein (Homo sapiens (Human), UniProt Q96SW2)
Assay: CRBN-binding affinity, HTRF (CEREBLON BINDING kit)
In short: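 GST-tagged human WT Cereblon incubated with compound, then Thalidomide-Re tracer and anti-GST Eu antibody added. Displacement read by HTRF, reported as CRBN binding inhibition rate against blank control wells without protein.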

Chain of human Cereblon WT GST-tagged protein (Q96SW2 whole entry): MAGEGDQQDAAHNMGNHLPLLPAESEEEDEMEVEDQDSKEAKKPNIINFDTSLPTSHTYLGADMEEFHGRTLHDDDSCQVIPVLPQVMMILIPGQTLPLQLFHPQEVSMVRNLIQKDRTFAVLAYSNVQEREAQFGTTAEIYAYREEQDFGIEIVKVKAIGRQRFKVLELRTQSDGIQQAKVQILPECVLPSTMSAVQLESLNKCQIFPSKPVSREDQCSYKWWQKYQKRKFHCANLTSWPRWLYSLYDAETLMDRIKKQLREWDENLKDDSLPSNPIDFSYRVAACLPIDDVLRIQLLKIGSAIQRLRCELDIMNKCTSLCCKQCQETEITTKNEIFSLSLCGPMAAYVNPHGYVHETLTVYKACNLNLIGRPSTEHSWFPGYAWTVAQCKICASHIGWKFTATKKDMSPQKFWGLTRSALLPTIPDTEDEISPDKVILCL

SMILES	IC50
O=C1CCC(N2Cc3cc(C(=O)N4CC5(CN(Cc6ccccc6-c6ccc(Cl)cc6)C5)C4)ccc3C2=O)C(=O)N1 (stereo not shown) [GT-05637, 3-(5-(6-((4′-chloro-[1,1′-biphenyl]-2-yl)methyl)-2,6-diazaspiro[3.3]heptane-2-carbonyl)-1-oxoisoindolin-2-yl)piperidine-2,6-dione]	1070 nM
O=C1CCC(N2Cc3cc(CN4C5CC4CN(C(=O)C4=C(c6ccc(F)cc6)CCCC4)C5)cc(F)c3C2=O)C(=O)N1 (stereo not shown) [GT-05477, 3-(7-fluoro-5-((3-(4′-fluoro-3,4,5,6-tetrahydro-[1,1′-biphenyl]-2-carbonyl)-3,6-diazabicyclo[3.1.1]heptan-6-yl)methyl)-1-oxoisoindolin-2-yl)piperidine-2,6-dione]	660 nM
O=C1CCC(N2Cc3c(ccc(CN4C5CC4CN(C(=O)C4=C(c6ccc(F)cc6)CCCC4)C5)c3F)C2=O)C(=O)N1 (stereo not shown) [GT-05475, 3-(4-fluoro-5-((3-(4′-fluoro-3,4,5,6-tetrahydro-[1,1′-biphenyl]-2-carbonyl)-3,6-diazabicyclo[3.1.1]heptan-6-yl)methyl)-1-oxoisoindolin-2-yl)piperidine-2,6-dione]	910 nM
CC1(C)CCC(CN2CCN(C(=O)c3ccc4c(c3)CN(C3CCC(=O)NC3=O)C4=O)CC2)=C(c2ccc(Cl)cc2)C1 (stereo not shown) [GT-05445, 3-(5-(4-((4′-chloro-5,5-dimethyl-3,4,5,6-tetrahydro-[1,1′-biphenyl]-2-yl)methyl)piperazine-1-carbonyl)-1-oxoisoindolin-2-yl)piperidine-2,6-dione]	1910 nM
CC1(C)CCC(CN2CC3CN(Cc4ccc5c(c4)CN(C4CCC(=O)NC4=O)C5=O)CC3C2)=C(c2ccc(F)cc2)C1 (stereo not shown) [GT-05398, 3-(5-((5-((4′-fluoro-5,5-dimethyl-3,4,5,6-tetrahydro-[1,1′-biphenyl]-2-yl)methyl)hexahydropyrrolo[3,4-c]pyrrol-2(1H)-yl)methyl)-1-oxoisoindolin-2-yl)piperidine-2,6-dione]	1050 nM
CC1(C)CCC(CN2CC3CC(C2)N3c2ccc3c(c2)C(=O)N(C2CCC(=O)NC2=O)C3=O)=C(c2ccc(F)cc2)C1 (stereo not shown) [GT-05386, 2-(2,6-dioxopiperidin-3-yl)-5-(3-((4′-fluoro-5,5-dimethyl-3,4,5,6-tetrahydro-[1,1′-biphenyl]-2-yl)methyl)-3,6-diazabicyclo[3.1.1]heptan-6-yl)isoindoline-1,3-dione]	1460 nM

These reach a lower IC50. Values come first.

IC50	SMILES
410 nM	CC1(C)CCC(CN2CC3CCC2CN3c2ccc3c(c2)C(=O)N(C2CCC(=O)NC2=O)C3=O)=C(c2ccc(F)cc2)C1 (stereo not shown) [GT-05388, 2-(2,6-dioxopiperidin-3-yl)-5-(5-((4′-fluoro-5,5-dimethyl-3,4,5,6-tetrahydro-[1,1′-biphenyl]-2-yl)methyl)-2,5-diazabicyclo[2.2.2]octan-2-yl)isoindoline-1,3-dione]
340 nM	CC1(C)CCC(CN2CCC(Cc3ccc4c(c3)CN(C3CCC(=O)NC3=O)C4=O)CC2)=C(c2ccc(F)cc2)C1 (stereo not shown) [GT-03455, 3-(5-((1-((4′-fluoro-5,5-dimethyl-3,4,5,6-tetrahydro-[1,1′-biphenyl]-2-yl)methyl)piperidin-4-yl)methyl)-1-oxoisoindolin-2-yl)piperidine-2,6-dione]
390 nM	O=C1CCC(N2Cc3c(CN4CCC(Nc5ccccc5-c5ccc(Cl)cc5)CC4)cccc3C2=O)C(=O)N1 (stereo not shown) [GT-04947, 3-(4-((4-((4′-chloro-[1,1′-biphenyl]-2-yl)amino)piperidin-1-yl)methyl)-1-oxoisoindolin-2-yl)piperidine-2,6-dione]
430 nM	CC1(C)CCC(C(=O)N2CCN(Cc3ccc4c(c3)CN(C3CCC(=O)NC3=O)C4=O)CC2)=C(c2ccc(Cl)cc2)C1 (stereo not shown) [GT-04224, 3-(5-((4-(4′-chloro-5,5-dimethyl-3,4,5,6-tetrahydro-[1,1′-biphenyl]-2-carbonyl)piperazin-1-yl)methyl)-1-oxoisoindolin-2-yl)piperidine-2,6-dione]
